Legend:
barnyardgrass [1] = assay: Test A pre-/postemergence herbicide test; assay type: in vivo, Echinochloa crus-galli; conditions: for Barnyardgrass plant response rating: Preemergence, visual rating on 0 to 100 scale (0 no effect, 100 complete control)
Method in brief: (§1)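 Seeds in loam–sand blend received preemergence directed soil spray; separately, plants 2–10 cm at one- to two-leaf stage received postemergence spray, both with test chemicals in non-phytotoxic solvent with surfactant. After ~10 days in greenhouse, injury rated visually against untreated controls, 0 (no effect) to 100 (complete control).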

crabgrass, large = assay: Test A pre-/postemergence herbicide test; assay type: in vivo, Digitaria sanguinalis; conditions: for Crabgrass, Large plant response rating: Preemergence, visual rating on 0 to 100 scale (0 no effect, 100 complete control)
Method in brief: as §1

giant foxtail = assay: Test A pre-/postemergence herbicide test; assay type: in vivo, Setaria faberii; conditions: for Foxtail, Giant plant response rating: Preemergence, visual rating on 0 to 100 scale (0 no effect, 100 complete control)
Method in brief: as §1

morningglory = assay: Test A pre-/postemergence herbicide test; assay type: in vivo, Ipomoea spp.; conditions: for Morningglory plant response rating: Preemergence, visual rating on 0 to 100 scale (0 no effect, 100 complete control)
Method in brief: as §1

pigweed = assay: Test A pre-/postemergence herbicide test; assay type: in vivo, Amaranthus retroflexus; conditions: for Pigweed plant response rating: Preemergence, visual rating on 0 to 100 scale (0 no effect, 100 complete control)
Method in brief: as §1

velvetleaf = assay: Test A pre-/postemergence herbicide test; assay type: in vivo, Abutilon theophrasti; conditions: for Velvetleaf plant response rating: Preemergence, visual rating on 0 to 100 scale (0 no effect, 100 complete control)
Method in brief: as §1

wheat = assay: Test A pre-/postemergence herbicide test; assay type: in vivo, Triticum aestivum; conditions: for Wheat plant response rating: Preemergence, visual rating on 0 to 100 scale (0 no effect, 100 complete control)
Method in brief: as §1

corn = assay: Test A pre-/postemergence herbicide test; assay type: in vivo, Zea mays; conditions: for Corn plant response rating: Preemergence, visual rating on 0 to 100 scale (0 no effect, 100 complete control)
Method in brief: as §1

rice = assay: Test B flooded paddy test; assay type: in vivo, Oryza sativa; conditions: 250 g ai/ha, Flood; scale of 0 to 100 where 0 is no effect and 100 is complete control
Method in brief: (§2)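 Visual ratings from 0, meaning no effect, up to 100, meaning complete control, were made by comparison with untreated controls 13 to 15 days after treatment. Test compounds went straight into floodwater standing 3 cm over the soil of pots holding 2-leaf seedlings.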

sedge, umbrella = assay: Test B flooded paddy test; assay type: in vivo, Cyperus difformis; conditions: 250 g ai/ha, Flood; scale of 0 to 100 where 0 is no effect and 100 is complete control
Method in brief: as §2

ducksalad = assay: Test B flooded paddy test; assay type: in vivo, Heteranthera limosa; conditions: 250 g ai/ha, Flood; scale of 0 to 100 where 0 is no effect and 100 is complete control
Method in brief: as §2

barnyardgrass [2] = assay: Test B flooded paddy test; assay type: in vivo, Echinochloa crus-galli; conditions: 250 g ai/ha, Flood; scale of 0 to 100 where 0 is no effect and 100 is complete control
Method in brief: as §2

[3] = Postemergence, 125 g ai/ha, 0 to 100 scale, 0 no effect, 100 complete control
[4] = Postemergence, 500 g ai/ha, 0 to 100 scale (0 no effect, 100 complete control)
[5] = preemergence, 500 g ai/ha, 0 to 100 scale (0 no effect, 100 complete control)
[6] = preemergence, 500 g ai/ha, 0 to 100 scale

Compound	Plant response rating, Barnyardgrass (barnyardgrass [1]; [3])	Plant response rating, Barnyardgrass (barnyardgrass [1]; [4])	Barnyardgrass plant response rating (barnyardgrass [1]; 125 g ai/ha)	Plant response rating, Barnyardgrass (barnyardgrass [1]; [5])	Plant response rating, Crabgrass, Large (crabgrass, large; [3])	Plant response rating, Crabgrass, Large (crabgrass, large; [4])	Crabgrass, Large plant response rating (crabgrass, large; 125 g ai/ha)	Plant response rating, Crabgrass, Large (crabgrass, large; [6])	Plant response rating, Foxtail, Giant (giant foxtail; [3])	Plant response rating, Foxtail, Giant (giant foxtail; [4])	Foxtail, Giant plant response rating (giant foxtail; 125 g ai/ha)	Plant response rating, Foxtail, Giant (giant foxtail; [6])	Plant response rating, Morningglory (morningglory; [3])	Plant response rating, Morningglory (morningglory; [4])	Morningglory plant response rating (morningglory; 125 g ai/ha)	Plant response rating, Morningglory (morningglory; [6])	Plant response rating, Pigweed (pigweed; [3])	Plant response rating, Pigweed (pigweed; [4])	Pigweed plant response rating (pigweed; 125 g ai/ha)	Plant response rating, Pigweed (pigweed; [6])	other results
O=C1NCC(c2ccc(F)c(F)c2)C1C(=O)Nc1cccc2c1OC(F)(F)O2 (stereo not drawn) [Compound 57]	70	80	40	80	50	70	80	90	50	60	60	80	0	0	0	0	0	0	0	0	Plant response rating, Velvetleaf (velvetleaf; [3]): 0; Plant response rating, Velvetleaf (velvetleaf; [4]): 0; Velvetleaf plant response rating (velvetleaf; 125 g ai/ha): 0; Plant response rating, Velvetleaf (velvetleaf; [6]): 0; Plant response rating, Wheat (wheat; [3]): 0; Plant response rating, Wheat (wheat; [4]): 0; Wheat plant response rating (wheat; 125 g ai/ha): 0; Plant response rating, Wheat (wheat; [6]): 0; Plant response rating, Corn (corn; [3]): 0; Plant response rating, Corn (corn; [4]): 0; Corn plant response rating (corn; 125 g ai/ha): 0; Plant response rating, Corn (corn; [6]): 0; Plant response rating, Rice (rice): 0; Plant response rating, Sedge, Umbrella (sedge, umbrella): 0; Plant response rating, Ducksalad (ducksalad): 0; Plant response rating, Barnyardgrass (barnyardgrass [2]): 0
COc1cccc(NC(=O)C2C(=O)NCC2c2ccc(F)c(F)c2)n1 (stereo not drawn) [Compound 58]	0	0	0	20	40	80	70	90	20	70	20	80	0	0	0	0	0	0	0	0	Plant response rating, Velvetleaf (velvetleaf; [3]): 0; Plant response rating, Velvetleaf (velvetleaf; [4]): 0; Velvetleaf plant response rating (velvetleaf; 125 g ai/ha): 0; Plant response rating, Velvetleaf (velvetleaf; [6]): 0; Plant response rating, Wheat (wheat; [3]): 0; Plant response rating, Wheat (wheat; [4]): 0; Wheat plant response rating (wheat; 125 g ai/ha): 0; Plant response rating, Wheat (wheat; [6]): 0; Plant response rating, Corn (corn; [3]): 0; Plant response rating, Corn (corn; [4]): 0; Corn plant response rating (corn; 125 g ai/ha): 0; Plant response rating, Corn (corn; [6]): 0; Plant response rating, Rice (rice): 0; Plant response rating, Sedge, Umbrella (sedge, umbrella): 0; Plant response rating, Ducksalad (ducksalad): 0; Plant response rating, Barnyardgrass (barnyardgrass [2]): 0
